Source: patent US8470738B2, “Pyridazinone compound and herbicide containing the same” (Sumitomo Chemical Company, Limited, priority 2007, dated 2013)

Key:
[1] = system: Lolium multiflorum; assay: Post-emergence treatment test in dry field; assay type: in vivo; settings: treatment amount 500 g/ha; foliar spray at first to second leaf stage; twenty days after treatment; 0 = no effect, 10 = complete death
Description: A plastic cup with a diameter of 8 cm and a depth of 6.5 cm was filled with commercially available soil. Seeds of Lolium multiflorum were sowed in the cup, covered with soil about 0.5 cm thick and then grown in a greenhouse. When the plants were grown in the first to second leaf stage, a diluted liquid formulation containing a prescribed amount of the compound I-a-2 was sprayed onto the whole plants uniformly. The diluted liquid formulation was prepared by dissolving a prescribed amount of the compound I-a-2 in a 2% solution of Tween 20 (polyoxyethylene sorbitan fatty acid ester, MP Biomedicals, Inc.) in dimethylformamide and then diluting the solution with deionized water. After the treatment, the plants were grown in a greenhouse. Twenty days after treatment, the controlling effect of the compound on Lolium multiflorum was visually evaluated. The effect was rated in 11 levels, from 0 to 10 (0 represents “no effect”; 10 represents “complete death”; and a state of the plant therebetween is rated in levels of 1 to 9).
The other compounds of the present invention, and Compound A described in J. Heterocycl. Chem., vol. 42, pp. 427-435 (2005) as a comparative example were similarly tested.

[2] = system: Apera spica-venti; assay: Pre-emergence treatment test in dry field; assay type: in vivo; settings: treatment amount 500 g/ha; sprayed onto soil surface after sowing; three weeks after treatment; 0 = no effect, 10 = complete death
Description: A plastic container (32 cm×22 cm×8 cm in height) was filled with soil sterilized by steam. Seeds of Apera spica-venti were sowed in the container and covered with soil about 0.5 cm thick. Then, a diluted liquid formulation containing a prescribed amount of the compound I-a-1 was sprayed onto the soil surface uniformly. The diluted liquid formulation was prepared by the method similar to that in Test example 1. After the treatment, the plants were grown in a greenhouse. Three weeks after treatment, the controlling effect of the compound on Apera spica-venti was visually evaluated. The effect was rated in 11 levels, from 0 to 10 similarly to Test example 1.
The other compounds of the present invention and Compound A as a comparative example were similarly tested.

Cc1ccccc1-c1c(O)cnn(C)c1=O [Compound A]
controlling effect on Lolium multiflorum (visually evaluated, rated 0 to 10) [1]: 1 | controlling effect on Apera spica-venti (visually evaluated, rated 0 to 10) [2]: 1
